Measured values: paper PMC9000710, “Synthesis and Hemostatic Activity of New Amide Derivatives” (Molecules, 2022)
“Also recorded” adds a separate entry of the source. Counter-ions that a name gives are not always drawn. Where a SMILES comes first, the peptide text is derived from it.

Tests used:
[1] = system: human blood plasma; assay: Thrombin time (TT) clotting assay; type: biochemical
Description: (§1) Human blood plasma was isolated from fresh buffy coats (collected onto the citrate-dextrose solution—ACD) purchased from the Regional Centre of Blood Donation and Blood Treatment in Lodz, Poland. In the isolation procedure, the buffy coats (60 mL units) were divided into volumes of 10 mL and centrifuged (4000 rpm/15 min) in 15 mL tubes. Next, 1 mL solutions of each amide 1–8 were prepared in distilled water at concentrations of 10, 25, and 50 mg/L. Then, 450 μL of plasma and 50 μL of each amide at the tested concentrations were placed into 1.5 mL vials. The vials were vortexed (Vortex Biosan V-1 plus), incubated at 37 °C on a thermoblock (Dry Block Thermostat Biosan TDB-120), and analyzed using a Kselmed K-3002 OPTIC coagulometer (Grudziądz, Poland), based on the manufacturer’s protocols (described below). The control sample was native blood plasma, untreated with any of the examined substances.
Both 100 μL of control plasma and plasma samples treated with the amides were transferred to measuring cuvettes, which were placed in the thermoblock module (37 °C) of the coagulometer (KSELMED K-3002 Optic). Then, 100 μL of thrombin solution (4.5 U/mL, in 0.9% NaCl; Biomed, Lublin, Poland) was added to the cuvette. Measurements were started immediately.

[2] = system: human blood plasma; assay: Activated partial thromboplastin time (aPTT) clotting assay; type: biochemical; details: for aPTT, effect versus control in words: tested at 10, 25, 50 mg/L
Description: as §1
Fifty microliters of control plasma and plasma samples treated with the amides were transferred to measuring cuvettes and placed in the thermoblock module (37 °C) of the coagulometer (KSELMED, K-3002 Optic). Then, 50 μL of Dia-APTT reagent (DIAGON Kft. Hungary; cat. no. 72048) was added. The mixture was incubated for 180 s at 37 °C. Finally, 50 μL of reagent Dia-CaCl2 (DIAGON Kft. Hungary; cat. no. 41192) was added. Measurements were started immediately.

[3] = system: human blood plasma; assay: Prothrombin time (PT) clotting assay; type: biochemical
Description: as §1
Fifty microliters of control plasma and plasma samples treated with the amides were transferred to measuring cuvettes and placed in the thermoblock module (37 °C) of a coagulometer (KSELMED, K-3002 Optic). Then, 100 μL of Dia-PT reagent (DIAGON Kft. Hungary; cat. no. 81100) was added. Measurements were started immediately.

[4] = system: human blood plasma; assay: Clot formation and fibrinolysis (CFF) assay; type: biochemical; details: for Amax (maximum of fibrin clot absorbance at 360 nm) / VmaxC (of Fibrin Polymerization) / VmaxF (of Fibrin Clot Lysis): control plasma assumed as 100%, mean ± SD, n = 5–7; for effect on fibrin polymerization (VmaxC) in words: tested at 10, 25, 50 mg/L
Excerpt: The CFF assay enables analysis of both the blood plasma coagulation process and fibrinolysis efficiency. The thrombin enzyme in the reagent mixture initiates blood plasma fibrinogen polymerization, leading to an increase in absorbance in the sample until the maximal absorbance (Amax) is attained. The fibrinolytic activity of blood plasma is induced by the tissue-type plasminogen activator (t-PA). The activation of fibrinolysis in the tested samples leads to fibrin clot degradation and decreases the absorbance to the baseline.
Figure 11 An exemplary curve of blood plasma coagulation and clot lysis recorded during the clot formation and fibrinolysis (CFF) assay. The first step in the CFF test involves activation of the blood plasma coagulation cascade and fibrin clot formation (1). It is characterized by the maximal velocity of the fibrin polymerization parameter (VmaxC). The maximal absorbance (Amax) peak corresponds to the fibrin stabilization phase and is an indicator of fibrin clot thickness (2). The third step of the CFF assay covers the activation of fibrinolytic mechanisms and fibrin clot degradation (3) and is described by the maximal velocity of clot lysis (VmaxF).
Thrombin was purchased from BioMed (Lublin, Poland). A tissue-type plasminogen activator (Actilyse®) was purchased from Boehringer Ingelheim, Ingelheim am Rhein, Germany. Kinetic measurements were executed using a SpectrostarNano microplate spectrophotometer (BMG LabTech, Ortenberg, Germany).
Measurements were performed using a kinetic model, as described in our previous work. Briefly, blood plasma was preincubated with the examined substances (at final concentrations of 10, 25, and 50 mg/L) for 15 min at 37 °C. Then, 100 μL of blood plasma was added to microtiter plate wells, which was followed by 200 μL of the reagent mixture (0.75 U/mL thrombin, 225 ng/mL t-PA and 7.5 mM CaCl2) suspended in tris-buffered saline (0.05 M TBS, 0.9% NaCl; pH 7.4). Measurements of absorbance changes were started immediately and continued for 60 min at 37 °C, λ = 360 nm. The following parameters were used to determine the effects of the examined substances on the coagulation and fibrinolytic properties of the blood plasma: the maximal velocity of fibrinogen polymerization (VmaxC), which is an indicator of the plasma coagulation efficiency; the maximal absorbance (Amax), which is an indicator of the fibrin clot stabilization and its thickness; the maximal velocity of clot lysis (VmaxF), which is an indicator of blood plasma fibrinolytic activity.

[5] = Hemolysis assay (stability of erythrocytes); type: cell-based, human; details: male, human, heparinized whole blood diluted with saline (erythrocytes); for hemolysis at 45 min, 5 mg/L / hemolysis at 120 min, 5 mg/L / hemolysis at 240 min, 5 mg/L: c 5 mg/L; for hemolysis at 45 min, 50 mg/L / hemolysis at 120 min, 50 mg/L / hemolysis at 240 min, 50 mg/L: c 50 mg/L; for hemolysis at 45 min, 500 mg/L / hemolysis at 120 min, 500 mg/L / hemolysis at 240 min, 500 mg/L: c 500 mg/L
Description: Heparinized whole blood was used from a healthy volunteer. The whole blood (10 mL) was diluted with saline solution (90 mL). For each UV-Vis measurement, 2.5 mL of diluted blood was used. For each blood sample, 1 mL of a saline solution containing hydrochlorides 1–8 at concentrations of 5, 50, and 500 mg/L was added. As a control were used blood samples with the addition of 1% solution of DMSO in saline and 1% solution of SDS in saline. In all cases, the measurements were repeated twice for each concentration. […] The cells were centrifuged, and the absorbance of the supernatant, which contained plasma and lysed erythrocytes, was measured at 540 nm. The percentage of lysis was calculated from a standard curve of lysed erythrocytes treated with SDS [52].

[6] = two lower concentrations (10 and 25 mg/L)

SMILES	aPTT, effect versus control in words [2]	prothrombin time, effect versus control in words [3, 6]	Amax (maximum of fibrin clot absorbance at 360 nm) ([4]; 10 mg/L) [%]	VmaxC (of Fibrin Polymerization) ([4]; 10 mg/L) [%]	VmaxF (of Fibrin Clot Lysis) ([4]; 10 mg/L)	Amax (maximum of fibrin clot absorbance at 360 nm) ([4]; 25 mg/L) [%]	VmaxC (of Fibrin Polymerization) ([4]; 25 mg/L) [%]	VmaxF (of Fibrin Clot Lysis) ([4]; 25 mg/L)	Amax (maximum of fibrin clot absorbance at 360 nm) ([4]; 50 mg/L) [%]	VmaxC (of Fibrin Polymerization) ([4]; 50 mg/L) [%]	VmaxF (of Fibrin Clot Lysis) ([4]; 50 mg/L)	TT Time [% of Control] ([1]; c 10 mg/L)	TT Time [% of Control] ([1]; c 25 mg/L)	TT Time [% of Control] ([1]; c 50 mg/L)	aPTT Time [% of Control] ([2]; c 10 mg/L)	aPTT Time [% of Control] ([2]; c 25 mg/L)	aPTT Time [% of Control] ([2]; c 50 mg/L)	PT Time [% of Control] ([3]; c 10 mg/L)	PT Time [% of Control] ([3]; c 25 mg/L)	PT Time [% of Control] ([3]; c 50 mg/L)	also measured
NC[C@H]1CC[C@H](C(=O)O)CC1 [TA, trans-4-(aminomethyl)cyclohexane carboxylic acid, reference compound]	significantly decreased	decreased	106.67 ± 3.79	101.38 ± 7.89	total inhibition	105.87 ± 6.23	104.75 ± 9.98	total inhibition	106.64 ± 4.65	104.85 ± 12.06	total inhibition	–	–	–	–	–	–	–	–	–	TT, effect versus control in words ([1]; all used concentrations (10, 25, 50 mg/L)): no effects; aPTT, effect versus control in words ([2]; listed as tranexamic acid): slightly shortened; prothrombin time, effect versus control in words ([3]; concentration not specified (10, 25, 50 mg/L tested), listed as tranexamic acid): slightly shortened; also recorded: slightly but statistically significantly reduced; effect on fibrin polymerization (VmaxC) in words [4]: did not influence
Cl.NCCCCCC(=O)NCCCCCC(=O)O [Amide 4, 6-(6-Aminohexanamido)hexanoic acid hydrochloride]	–	–	115.37 ± 8.73	107.93 ± 7.23	81.36 ± 21.07 %	114.07 ± 15.71	105.85 ± 7.85	70.35 ± 16.30 %	109.29 ± 9.02	105.89 ± 5.64	55.95 ± 10.51 %	96.3 ± 6.9 % of Control	95.5 ± 8.8 % of Control	97.6 ± 5.0 % of Control	98.1 ± 5.2 % of Control	97.4 ± 5.4 % of Control	99.9 ± 6.0 % of Control	97.3 ± 4.2 % of Control	95.4 ± 2.3 % of Control	93.7 ± 3.0 % of Control	prothrombin time, effect versus control in words ([3]; two higher concentrations (25 and 50 mg/L)): significantly decreased; hemolysis at 45 min, 5 mg/L [5]: 1%; hemolysis at 120 min, 5 mg/L [5]: 0.74%; hemolysis at 240 min, 5 mg/L [5]: 0.27%; hemolysis at 45 min, 50 mg/L [5]: 0%; hemolysis at 120 min, 50 mg/L [5]: 0.71%; hemolysis at 240 min, 50 mg/L [5]: 0.32%; hemolysis at 45 min, 500 mg/L [5]: 0.38%; hemolysis at 120 min, 500 mg/L [5]: 0.21%; hemolysis at 240 min, 500 mg/L [5]: 0.22%; decrease of VmaxF ([4]; concentration not given): 30–40%
NCCCCCC(=O)NCC1CCC(C(=O)O)CC1 (stereo not shown) [Amide 3, 6-((((1s,4s)-4-Carboxycyclohexyl)methyl)amino)-6-oxohexan-1-aminium chloride]	significantly decreased	decreased	107.21 ± 6.90	105.61 ± 7.06	93.23 ± 16.83%	104.49 ± 9.80	103.88 ± 9.73	97.05 ± 24.39%	112.98 ± 8.40	109.78 ± 6.46	102.82 ± 20.01%	100.1 ± 2.6 % of Control	100.8 ± 6.9 % of Control	97.2 ± 4.3 % of Control	94.8 ± 4.5 % of Control	94.7 ± 4.1 % of Control	96.3 ± 2.8 % of Control	94.9 ± 2.2 % of Control	95.2 ± 3.0 % of Control	97.0 ± 3.6 % of Control	hemolysis at 45 min, 5 mg/L [5]: 0.44%; hemolysis at 120 min, 5 mg/L [5]: 0.74%; hemolysis at 240 min, 5 mg/L [5]: 0.41%; hemolysis at 45 min, 50 mg/L [5]: 0%; hemolysis at 120 min, 50 mg/L [5]: 0%; hemolysis at 240 min, 50 mg/L [5]: 0.26%; hemolysis at 45 min, 500 mg/L [5]: 0.47%; hemolysis at 120 min, 500 mg/L [5]: 0.65%; hemolysis at 240 min, 500 mg/L [5]: 0.23%
NCC(=O)NCC(=O)O [Amide 5, Glycylglycine hydrochloride] (H-Gly-Gly-OH)	–	–	106.44 ± 1.78	105.80 ± 2.97	90.08 ± 13.68%	107.12 ± 4.65	105.88 ± 3.76	85.12 ± 16.98 %	113.43 ± 7.86	109.83 ± 1.46	89.46 ± 10.48 %	99.1 ± 6.1 % of Control	99.0 ± 4.7 % of Control	97.8 ± 3.3 % of Control	98.8 ± 5.8 % of Control	101.1 ± 4.9 % of Control	100.8 ± 2.6 % of Control	95.0 ± 10.5 % of Control	92.0 ± 8.5 % of Control	93.0 ± 8.3 % of Control	procoagulant activity judged from VmaxC and Amax, in words ([4]; among the tested compounds): most evident procoagulant activity; Amax parameter, effect in words ([4]; full range of tested concentrations (10–50 µg/mL)): significantly higher; effect on fibrin polymerization (VmaxC) in words [4]: Mild pro-coagulant effects
